ChEMBL document CHEMBL4219273, “Discovery of a novel olefin derivative as a highly potent and selective acetyl-CoA carboxylase 2 inhibitor with in vivo efficacy” (Bioorg Med Chem Lett, 2018)

Biological target: Acetyl-CoA carboxylase 1 (Homo sapiens, UniProt Q13085)
Experiment: Inhibition of recombinant human ACC1 assessed as reduction in conversion of acetyl-CoA to malonyl-CoA incubated for 1 to 3 hrs with substrate by MALDI-TOF-MS analysis
Conditions: not given

SMILES	IC50 [µM]
CC(=O)N[C@@H](C)/C=C/c1ccc(Oc2ccc3nc(C(C)C)sc3c2C(F)(F)F)nc1	7.45
CCOc1ccc(Oc2ccc(/C=C/[C@H](C)NC(C)=O)cn2)c(Cl)c1	> 100
CC(=O)N[C@@H](C)/C=C/c1cnc(Oc2ccc(OCC3CC3)cc2)s1	1.94
CCOc1ccc(Oc2ncc(/C=C/[C@H](C)NC(C)=O)s2)cc1	> 100

These reach a lower IC50. Values come first.

IC50 [µM]	SMILES
1.27	CC(=O)N[C@@H](C)/C=C/c1cnc(Oc2ccc(OCC3CC3)cc2Cl)s1
0.75	CC(=O)N[C@@H](C)/C=C/c1cnc(Oc2ccc(OCC3CC3)cc2Cl)cn1

Species on record: Homo sapiens
Experiment: Selectivity ratio of IC50 for recombinant human ACC1 to IC50 for recombinant human ACC2
Conditions: not given

SMILES	Ratio IC50
CC(=O)N[C@@H](C)/C=C/c1ccc(Oc2ccc3nc(C(C)C)sc3c2C(F)(F)F)nc1	126
CCOc1ccc(Oc2ccc(/C=C/[C@H](C)NC(C)=O)cn2)c(Cl)c1	> 2170
CC(=O)N[C@@H](C)/C=C/c1cnc(Oc2ccc(OCC3CC3)cc2)s1	63
CCOc1ccc(Oc2ncc(/C=C/[C@H](C)NC(C)=O)s2)cc1	> 1270

The next lines start with the values.

Ratio IC50	SMILES
98	CC(=O)N[C@@H](C)/C=C/c1cnc(Oc2ccc(OCC3CC3)cc2Cl)s1
30	CC(=O)N[C@@H](C)/C=C/c1cnc(Oc2ccc(OCC3CC3)cc2Cl)cn1

Test system: not listed separately
Experiment: Metabolic stability in human liver microsomes assessed as parent compound remaining after 30 mins
Assay type: ADME, microsome
Conditions: read-out: Stability

remaining at 0.5 h [%]	SMILES
87	CC(=O)N[C@@H](C)/C=C/c1ccc(Oc2ccc3nc(C(C)C)sc3c2C(F)(F)F)nc1

Biological target: Cytochrome P450 3A4 (Homo sapiens, UniProt P08684)
Sequence (P08684 whole entry): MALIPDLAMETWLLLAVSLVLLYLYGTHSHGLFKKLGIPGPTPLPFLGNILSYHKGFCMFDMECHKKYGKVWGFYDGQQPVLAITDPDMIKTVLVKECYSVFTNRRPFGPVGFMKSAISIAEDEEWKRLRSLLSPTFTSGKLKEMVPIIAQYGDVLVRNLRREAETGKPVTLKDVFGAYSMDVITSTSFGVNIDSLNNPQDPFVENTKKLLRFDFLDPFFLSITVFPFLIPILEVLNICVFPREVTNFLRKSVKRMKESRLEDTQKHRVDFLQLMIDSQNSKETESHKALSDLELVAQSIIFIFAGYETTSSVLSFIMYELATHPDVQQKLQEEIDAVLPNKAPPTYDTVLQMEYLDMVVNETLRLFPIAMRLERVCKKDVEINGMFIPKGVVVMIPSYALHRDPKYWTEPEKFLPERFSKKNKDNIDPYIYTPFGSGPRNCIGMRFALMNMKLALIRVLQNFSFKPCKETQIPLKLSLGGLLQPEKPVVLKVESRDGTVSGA
Experiment: Inhibition of CYP3A4 (unknown origin)
Assay type: ADME
Conditions: not given

SMILES	IC50 [µM]
CC(=O)N[C@@H](C)/C=C/c1ccc(Oc2ccc3nc(C(C)C)sc3c2C(F)(F)F)nc1	17
CCOc1ccc(Oc2ccc(/C=C/[C@H](C)NC(C)=O)cn2)c(Cl)c1	> 20
CC(=O)N[C@@H](C)/C=C/c1cnc(Oc2ccc(OCC3CC3)cc2)s1	> 20
CCOc1ccc(Oc2ncc(/C=C/[C@H](C)NC(C)=O)s2)cc1	> 20

Further lines, results first:

IC50 [µM]	SMILES
> 20	CC(=O)N[C@@H](C)/C=C/c1cnc(Oc2ccc(OCC3CC3)cc2Cl)s1
> 20	CC(=O)N[C@@H](C)/C=C/c1cnc(Oc2ccc(OCC3CC3)cc2Cl)cn1

Biological target: Acetyl-CoA carboxylase 2 (Homo sapiens, UniProt O00763)
Sequence (O00763 whole entry): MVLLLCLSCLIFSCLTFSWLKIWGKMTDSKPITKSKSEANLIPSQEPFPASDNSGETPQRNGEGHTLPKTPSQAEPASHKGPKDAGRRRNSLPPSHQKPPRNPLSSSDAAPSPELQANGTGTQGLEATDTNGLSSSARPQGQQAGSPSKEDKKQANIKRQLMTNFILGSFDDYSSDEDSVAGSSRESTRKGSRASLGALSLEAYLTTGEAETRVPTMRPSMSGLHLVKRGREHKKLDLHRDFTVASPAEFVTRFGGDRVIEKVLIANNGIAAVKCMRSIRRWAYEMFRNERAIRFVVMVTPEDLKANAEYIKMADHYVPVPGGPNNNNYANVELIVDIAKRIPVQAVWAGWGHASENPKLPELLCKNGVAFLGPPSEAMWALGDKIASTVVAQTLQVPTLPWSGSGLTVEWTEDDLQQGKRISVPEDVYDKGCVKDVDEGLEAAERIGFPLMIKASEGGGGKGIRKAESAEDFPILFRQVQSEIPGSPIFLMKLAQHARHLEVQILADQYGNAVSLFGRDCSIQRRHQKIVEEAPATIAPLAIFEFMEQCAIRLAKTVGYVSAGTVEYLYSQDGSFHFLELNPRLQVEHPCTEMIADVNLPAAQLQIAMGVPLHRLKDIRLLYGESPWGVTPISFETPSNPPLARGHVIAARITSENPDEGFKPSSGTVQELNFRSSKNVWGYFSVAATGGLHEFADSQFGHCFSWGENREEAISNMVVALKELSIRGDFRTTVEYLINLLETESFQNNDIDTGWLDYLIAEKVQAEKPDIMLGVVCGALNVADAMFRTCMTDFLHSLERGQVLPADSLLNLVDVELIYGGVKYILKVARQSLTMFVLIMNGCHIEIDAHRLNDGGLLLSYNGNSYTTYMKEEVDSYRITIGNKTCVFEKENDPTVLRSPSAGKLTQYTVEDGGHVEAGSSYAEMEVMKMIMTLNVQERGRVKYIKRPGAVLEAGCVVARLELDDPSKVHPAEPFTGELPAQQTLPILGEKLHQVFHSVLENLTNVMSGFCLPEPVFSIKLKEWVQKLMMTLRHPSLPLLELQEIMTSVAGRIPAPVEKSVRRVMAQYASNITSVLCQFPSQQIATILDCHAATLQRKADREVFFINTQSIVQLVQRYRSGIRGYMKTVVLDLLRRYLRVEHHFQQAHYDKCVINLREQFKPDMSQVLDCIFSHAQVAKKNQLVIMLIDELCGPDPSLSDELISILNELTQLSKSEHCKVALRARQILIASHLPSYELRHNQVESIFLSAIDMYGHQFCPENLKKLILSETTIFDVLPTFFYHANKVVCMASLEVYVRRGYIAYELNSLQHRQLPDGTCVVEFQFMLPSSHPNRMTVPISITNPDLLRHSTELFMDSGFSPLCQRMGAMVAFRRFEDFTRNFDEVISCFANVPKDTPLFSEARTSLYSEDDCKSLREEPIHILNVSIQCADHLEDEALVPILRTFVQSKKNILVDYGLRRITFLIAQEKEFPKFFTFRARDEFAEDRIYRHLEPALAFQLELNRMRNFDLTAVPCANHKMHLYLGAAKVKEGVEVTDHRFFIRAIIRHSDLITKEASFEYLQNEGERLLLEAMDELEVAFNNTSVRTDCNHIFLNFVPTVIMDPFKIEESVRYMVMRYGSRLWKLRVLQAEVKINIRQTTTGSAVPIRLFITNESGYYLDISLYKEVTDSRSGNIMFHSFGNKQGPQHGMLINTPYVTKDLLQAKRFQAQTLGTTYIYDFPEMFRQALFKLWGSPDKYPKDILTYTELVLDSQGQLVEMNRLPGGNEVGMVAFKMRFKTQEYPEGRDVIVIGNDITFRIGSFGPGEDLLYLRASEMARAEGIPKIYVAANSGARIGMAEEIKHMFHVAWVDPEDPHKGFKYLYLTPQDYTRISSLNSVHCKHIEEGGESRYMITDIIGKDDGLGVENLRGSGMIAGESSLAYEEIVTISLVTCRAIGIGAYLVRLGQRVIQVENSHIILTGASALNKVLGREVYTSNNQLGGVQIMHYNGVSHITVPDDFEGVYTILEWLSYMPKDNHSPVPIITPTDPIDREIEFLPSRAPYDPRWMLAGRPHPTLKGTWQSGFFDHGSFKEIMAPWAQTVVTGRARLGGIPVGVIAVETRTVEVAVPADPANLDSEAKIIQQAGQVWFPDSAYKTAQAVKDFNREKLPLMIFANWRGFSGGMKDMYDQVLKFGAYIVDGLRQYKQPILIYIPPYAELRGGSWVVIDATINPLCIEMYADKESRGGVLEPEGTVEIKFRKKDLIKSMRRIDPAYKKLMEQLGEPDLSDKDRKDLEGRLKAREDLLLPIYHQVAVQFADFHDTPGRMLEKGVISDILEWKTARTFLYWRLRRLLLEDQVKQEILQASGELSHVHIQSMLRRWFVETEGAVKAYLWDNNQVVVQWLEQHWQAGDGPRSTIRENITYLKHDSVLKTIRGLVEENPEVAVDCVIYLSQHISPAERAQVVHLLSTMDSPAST
Experiment: Inhibition of recombinant human ACC2 assessed as reduction in conversion of acetyl-CoA to malonyl-CoA incubated for 1 to 3 hrs with substrate by MALDI-TOF-MS analysis
Conditions: not given

SMILES	IC50 [µM]
CC(=O)N[C@@H](C)/C=C/c1ccc(Oc2ccc3nc(C(C)C)sc3c2C(F)(F)F)nc1	0.059
CCOc1ccc(Oc2ccc(/C=C/[C@H](C)NC(C)=O)cn2)c(Cl)c1	0.046
CC(=O)N[C@@H](C)/C=C/c1cnc(Oc2ccc(OCC3CC3)cc2)s1	0.031
CCOc1ccc(Oc2ncc(/C=C/[C@H](C)NC(C)=O)s2)cc1	0.079

Other lines, results leading:

IC50 [µM]	SMILES
0.013	CC(=O)N[C@@H](C)/C=C/c1cnc(Oc2ccc(OCC3CC3)cc2Cl)s1
0.025	CC(=O)N[C@@H](C)/C=C/c1cnc(Oc2ccc(OCC3CC3)cc2Cl)cn1

Test system: not listed separately
Experiment: Metabolic stability in rat liver microsomes assessed as parent compound remaining after 30 mins
Assay type: ADME, microsome
Conditions: read-out: Stability

remaining at 0.5 h [%]	SMILES
83	CC(=O)N[C@@H](C)/C=C/c1ccc(Oc2ccc3nc(C(C)C)sc3c2C(F)(F)F)nc1

Biological target: Cytochrome P450 2D6 (Homo sapiens, UniProt P10635)
Sequence (P10635 whole entry): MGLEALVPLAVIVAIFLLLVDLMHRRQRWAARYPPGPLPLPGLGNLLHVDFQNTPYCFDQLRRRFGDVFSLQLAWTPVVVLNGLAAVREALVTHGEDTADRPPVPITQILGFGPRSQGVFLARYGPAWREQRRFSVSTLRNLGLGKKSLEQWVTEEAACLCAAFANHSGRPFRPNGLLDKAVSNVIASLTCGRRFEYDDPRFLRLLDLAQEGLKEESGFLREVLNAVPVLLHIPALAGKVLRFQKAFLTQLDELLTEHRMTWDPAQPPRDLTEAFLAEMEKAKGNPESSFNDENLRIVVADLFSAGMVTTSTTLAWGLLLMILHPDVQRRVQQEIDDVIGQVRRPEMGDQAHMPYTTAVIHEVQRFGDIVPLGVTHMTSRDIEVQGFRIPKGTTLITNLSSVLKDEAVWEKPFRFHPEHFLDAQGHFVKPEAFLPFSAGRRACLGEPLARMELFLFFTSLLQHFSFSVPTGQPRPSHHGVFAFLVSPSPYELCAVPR
Experiment: Inhibition of CYP2D6 (unknown origin)
Assay type: ADME
Conditions: not given

SMILES	IC50 [µM]
CC(=O)N[C@@H](C)/C=C/c1ccc(Oc2ccc3nc(C(C)C)sc3c2C(F)(F)F)nc1	> 20
CCOc1ccc(Oc2ccc(/C=C/[C@H](C)NC(C)=O)cn2)c(Cl)c1	> 20
CC(=O)N[C@@H](C)/C=C/c1cnc(Oc2ccc(OCC3CC3)cc2)s1	> 20
CCOc1ccc(Oc2ncc(/C=C/[C@H](C)NC(C)=O)s2)cc1	> 20

More lines, now with the values ahead:

IC50 [µM]	SMILES
> 20	CC(=O)N[C@@H](C)/C=C/c1cnc(Oc2ccc(OCC3CC3)cc2Cl)s1
> 20	CC(=O)N[C@@H](C)/C=C/c1cnc(Oc2ccc(OCC3CC3)cc2Cl)cn1

Biological target: T1, Cytochrome P450 1A2 (Homo sapiens, UniProt P05177)
T1 sequence (P05177 whole entry): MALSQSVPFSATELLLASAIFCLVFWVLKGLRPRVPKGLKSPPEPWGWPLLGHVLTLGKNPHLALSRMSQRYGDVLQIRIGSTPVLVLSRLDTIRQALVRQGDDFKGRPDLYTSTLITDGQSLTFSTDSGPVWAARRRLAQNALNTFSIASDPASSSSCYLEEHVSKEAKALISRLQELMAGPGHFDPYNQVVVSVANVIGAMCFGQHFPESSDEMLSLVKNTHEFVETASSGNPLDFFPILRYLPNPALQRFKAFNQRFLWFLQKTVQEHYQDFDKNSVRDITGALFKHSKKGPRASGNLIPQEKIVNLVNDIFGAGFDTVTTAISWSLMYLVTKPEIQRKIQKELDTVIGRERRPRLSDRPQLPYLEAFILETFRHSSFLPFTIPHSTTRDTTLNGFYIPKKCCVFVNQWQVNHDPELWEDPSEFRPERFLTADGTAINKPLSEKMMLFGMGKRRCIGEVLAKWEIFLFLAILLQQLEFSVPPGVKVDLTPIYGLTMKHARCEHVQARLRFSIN
Experiment: Inhibition of CYP1A2 (unknown origin)
Assay type: ADME
Conditions: not given

SMILES	IC50 [µM]
CC(=O)N[C@@H](C)/C=C/c1ccc(Oc2ccc3nc(C(C)C)sc3c2C(F)(F)F)nc1	> 20
CCOc1ccc(Oc2ccc(/C=C/[C@H](C)NC(C)=O)cn2)c(Cl)c1	> 20
CC(=O)N[C@@H](C)/C=C/c1cnc(Oc2ccc(OCC3CC3)cc2)s1	> 20
CCOc1ccc(Oc2ncc(/C=C/[C@H](C)NC(C)=O)s2)cc1	> 20

Next, values leading:

IC50 [µM]	SMILES
> 20	CC(=O)N[C@@H](C)/C=C/c1cnc(Oc2ccc(OCC3CC3)cc2Cl)s1
> 20	CC(=O)N[C@@H](C)/C=C/c1cnc(Oc2ccc(OCC3CC3)cc2Cl)cn1

Biological target: Cytochrome P450 2C19 (Homo sapiens, UniProt P33261)
Sequence (P33261 whole entry): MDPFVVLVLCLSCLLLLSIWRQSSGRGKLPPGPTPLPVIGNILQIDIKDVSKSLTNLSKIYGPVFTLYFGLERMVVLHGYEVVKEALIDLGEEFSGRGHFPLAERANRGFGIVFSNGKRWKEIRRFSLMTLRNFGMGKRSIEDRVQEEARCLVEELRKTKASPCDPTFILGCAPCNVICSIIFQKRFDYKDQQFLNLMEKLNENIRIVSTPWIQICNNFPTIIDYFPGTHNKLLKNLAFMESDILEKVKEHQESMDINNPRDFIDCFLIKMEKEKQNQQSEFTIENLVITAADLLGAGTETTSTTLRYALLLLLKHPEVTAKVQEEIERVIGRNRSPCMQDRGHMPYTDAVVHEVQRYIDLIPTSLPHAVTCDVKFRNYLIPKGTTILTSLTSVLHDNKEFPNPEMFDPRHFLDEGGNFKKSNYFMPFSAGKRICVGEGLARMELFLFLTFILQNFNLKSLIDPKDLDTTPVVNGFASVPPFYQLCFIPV
Experiment: Inhibition of CYP2C19 (unknown origin)
Assay type: ADME
Conditions: not given

SMILES	IC50 [µM]
CC(=O)N[C@@H](C)/C=C/c1ccc(Oc2ccc3nc(C(C)C)sc3c2C(F)(F)F)nc1	18
CCOc1ccc(Oc2ccc(/C=C/[C@H](C)NC(C)=O)cn2)c(Cl)c1	> 20
CC(=O)N[C@@H](C)/C=C/c1cnc(Oc2ccc(OCC3CC3)cc2)s1	18
CCOc1ccc(Oc2ncc(/C=C/[C@H](C)NC(C)=O)s2)cc1	> 20

The next lines start with the values.

IC50 [µM]	SMILES
14	CC(=O)N[C@@H](C)/C=C/c1cnc(Oc2ccc(OCC3CC3)cc2Cl)s1
> 20	CC(=O)N[C@@H](C)/C=C/c1cnc(Oc2ccc(OCC3CC3)cc2Cl)cn1

Biological target: Cytochrome P450 2C9 (Homo sapiens, UniProt P11712)
Sequence (P11712 whole entry): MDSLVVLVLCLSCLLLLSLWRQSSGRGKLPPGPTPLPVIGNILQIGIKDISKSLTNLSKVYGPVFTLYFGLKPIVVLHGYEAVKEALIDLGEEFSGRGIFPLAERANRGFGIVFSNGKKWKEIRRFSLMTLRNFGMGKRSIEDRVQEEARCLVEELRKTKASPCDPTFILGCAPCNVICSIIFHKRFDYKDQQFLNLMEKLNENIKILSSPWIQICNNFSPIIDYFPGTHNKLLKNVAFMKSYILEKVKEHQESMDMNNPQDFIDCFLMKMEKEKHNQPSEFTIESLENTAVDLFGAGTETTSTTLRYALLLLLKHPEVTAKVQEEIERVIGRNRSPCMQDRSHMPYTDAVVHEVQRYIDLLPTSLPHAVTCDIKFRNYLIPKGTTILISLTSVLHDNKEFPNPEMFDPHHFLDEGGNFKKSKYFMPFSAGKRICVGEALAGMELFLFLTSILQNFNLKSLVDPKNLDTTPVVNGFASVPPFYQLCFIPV
Experiment: Inhibition of CYP2C9 (unknown origin)
Assay type: ADME
Conditions: not given

SMILES	IC50 [µM]
CC(=O)N[C@@H](C)/C=C/c1ccc(Oc2ccc3nc(C(C)C)sc3c2C(F)(F)F)nc1	14
CCOc1ccc(Oc2ccc(/C=C/[C@H](C)NC(C)=O)cn2)c(Cl)c1	> 20
CC(=O)N[C@@H](C)/C=C/c1cnc(Oc2ccc(OCC3CC3)cc2)s1	8.2
CCOc1ccc(Oc2ncc(/C=C/[C@H](C)NC(C)=O)s2)cc1	8.6

Now from value to molecule:

IC50 [µM]	SMILES
3.5	CC(=O)N[C@@H](C)/C=C/c1cnc(Oc2ccc(OCC3CC3)cc2Cl)s1
> 20	CC(=O)N[C@@H](C)/C=C/c1cnc(Oc2ccc(OCC3CC3)cc2Cl)cn1
